BindingDB's records for doi:10.1016/S0960-894X(97)10080-4 (1997)

Assay: Tested for functional activity against neuronal nicotinic acetylcholine receptor(nAChR) expressed in K177 cells using isotopic rubidium efflux assay.

c1cnc2cc([C@@H]3CCCN3)oc2c1 [(S)-2-Pyrrolidin-2-yl-furo[3,2-b]pyridine]
EC50: > 1000 µM
